Legend:
Format in all cases: biochemical
[1] = target: T1, full length Aurora-A (AA 1-403) (Homo sapiens, UniProt O14965); assay: Aurora-A inhibition assay, standard coupled enzyme system; settings: average Ki if more than one value determined
T1 construct: full length Aurora-A (AA 1-403)
T1 sequence (O14965 1-403): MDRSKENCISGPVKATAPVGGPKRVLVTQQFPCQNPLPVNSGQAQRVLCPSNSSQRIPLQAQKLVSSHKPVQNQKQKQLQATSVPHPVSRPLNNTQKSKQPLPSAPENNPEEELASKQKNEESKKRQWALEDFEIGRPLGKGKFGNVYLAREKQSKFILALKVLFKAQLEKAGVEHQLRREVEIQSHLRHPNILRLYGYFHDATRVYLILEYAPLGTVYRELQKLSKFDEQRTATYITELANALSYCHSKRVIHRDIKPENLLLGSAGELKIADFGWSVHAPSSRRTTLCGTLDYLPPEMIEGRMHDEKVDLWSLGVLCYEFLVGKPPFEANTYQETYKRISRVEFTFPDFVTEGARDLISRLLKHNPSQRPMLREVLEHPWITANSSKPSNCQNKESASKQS

JAK3 = target: T2, JAK3 (Homo sapiens, UniProt P52333); assay: JAK3 inhibition assay (standard radioactive enzyme assay); settings: average Ki if more than one value determined
T2 sequence (P52333 1-1124): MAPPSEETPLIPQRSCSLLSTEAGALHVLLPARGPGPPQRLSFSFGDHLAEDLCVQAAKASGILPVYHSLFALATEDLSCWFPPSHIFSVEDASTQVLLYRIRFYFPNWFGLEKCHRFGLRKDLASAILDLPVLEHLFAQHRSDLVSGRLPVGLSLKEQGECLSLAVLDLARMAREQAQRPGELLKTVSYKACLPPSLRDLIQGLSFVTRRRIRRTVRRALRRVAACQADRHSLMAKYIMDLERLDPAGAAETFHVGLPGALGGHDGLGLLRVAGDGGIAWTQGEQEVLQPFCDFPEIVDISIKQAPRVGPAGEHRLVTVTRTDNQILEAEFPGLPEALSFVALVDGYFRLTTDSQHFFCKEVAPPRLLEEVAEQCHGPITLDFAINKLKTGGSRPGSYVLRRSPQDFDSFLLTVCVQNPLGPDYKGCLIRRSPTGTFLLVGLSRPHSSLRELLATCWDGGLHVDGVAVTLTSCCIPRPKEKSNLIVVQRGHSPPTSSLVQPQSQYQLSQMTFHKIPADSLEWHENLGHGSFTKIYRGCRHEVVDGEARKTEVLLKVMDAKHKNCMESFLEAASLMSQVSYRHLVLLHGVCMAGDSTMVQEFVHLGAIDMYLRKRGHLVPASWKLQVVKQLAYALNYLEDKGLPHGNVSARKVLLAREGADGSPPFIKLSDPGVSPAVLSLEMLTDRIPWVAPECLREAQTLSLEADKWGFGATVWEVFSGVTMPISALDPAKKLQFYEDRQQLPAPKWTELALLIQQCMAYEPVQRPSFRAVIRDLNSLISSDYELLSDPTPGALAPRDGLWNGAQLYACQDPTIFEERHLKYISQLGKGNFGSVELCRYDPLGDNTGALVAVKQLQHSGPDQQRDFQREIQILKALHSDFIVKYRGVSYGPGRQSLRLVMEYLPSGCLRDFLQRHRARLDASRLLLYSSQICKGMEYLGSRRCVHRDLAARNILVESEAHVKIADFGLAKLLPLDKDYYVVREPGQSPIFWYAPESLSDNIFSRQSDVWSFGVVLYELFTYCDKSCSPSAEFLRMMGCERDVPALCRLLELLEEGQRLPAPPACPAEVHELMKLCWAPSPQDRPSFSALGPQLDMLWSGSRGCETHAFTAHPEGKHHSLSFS

ROCK = ROCK (Homo sapiens, UniProt Q13464); assay: ROCK inhibition assay, standard radioactive enzyme assay ("33P")
Protocol: Some compounds were screened for their ability to inhibit ROCK using a standard radioactive enzyme assay. Assays were carried out in a solution containing 100 mM HEPES (pH 7.5), 10 mM MgCl2, 25 mM NaCl, 2 mM DTT, and 1.5% DMSO. Final substrate concentrations in the assay were 13 μM [γ-^33P] ATP (25 mCi ^33P ATP/mmol ATP, Perkin Elmer, Cambridge, Mass./Sigma Chemicals, St Louis, Mo.) and 27 μM Myelin Basic Protein (MBP). Final enzyme concentration in the assay was 5 nM ROCK. Assays were carried out at room temperature. 1.5 μl of DMSO stock containing serial dilutions of the compound of the present invention (concentrations ranging from 10 μM to 2.6 nM) was placed in a 96 well plate. 50 μl of Solution 1 (100 mM HEPES (pH 7.5), 10 mM MgCl2, […]) was added to the plate. The reaction was initiated by addition of 50 μl of Solution 2 (100 mM HEPES (pH 7.5), 10 mM MgCl2, 4 mM DTT, […] and 10 nM ROCK). After 2 hours the reaction was quenched with 50 μL of 30% trichloroacetic acid (TCA, Fisher) containing 9 mM ATP. Transfer of 140 μL of the quenched reaction to a glass fiber filter plate (Corning, Cat. No. 3511) was followed by washing 3 times with 5% TCA. 50 μL of Optima Gold scintillation fluid (Perkin Elmer) was added and the plates were counted on a Top Count (Perkin Elmer). After removing mean background values for all of the data points the data was fit using Prism software to obtain a Ki(app).

JAK2 = JAK2 (Homo sapiens, UniProt O60674); assay: JAK2 inhibition assay (radioactive enzyme assay, as for JAK3); settings: average Ki if more than one value determined
Procedure, shortened: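 Both kinases: poly(Glu)4Tyr substrate in 100 mM HEPES pH 7.4, 10 mM MgCl2, 1 mM DTT. Run 20 min at 25° C, TCA stop, filter-bound ³³P counted, Ki(app) fitted after background subtraction. JAK3: final [γ-³³P]ATP 5 μM, enzyme added as 2 nM solution. JAK2: final poly(Glu)4Tyr 15 μM, final ATP 12 μM.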

Aurora-B = Aurora-B (Homo sapiens, UniProt Q96GD4); assay: Aurora-B inhibition assay, radioactive assay; settings: average Ki if more than one value determined
Procedure, shortened: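 Aurora-B protein substituted into the standard radioactive kinase format: reaction quenched with TCA, product captured on glass fiber filters and 33P counted. Ki(app) derived by fitting background-corrected counts against inhibitor concentration.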

ROCK, sequence (Q13464 whole entry): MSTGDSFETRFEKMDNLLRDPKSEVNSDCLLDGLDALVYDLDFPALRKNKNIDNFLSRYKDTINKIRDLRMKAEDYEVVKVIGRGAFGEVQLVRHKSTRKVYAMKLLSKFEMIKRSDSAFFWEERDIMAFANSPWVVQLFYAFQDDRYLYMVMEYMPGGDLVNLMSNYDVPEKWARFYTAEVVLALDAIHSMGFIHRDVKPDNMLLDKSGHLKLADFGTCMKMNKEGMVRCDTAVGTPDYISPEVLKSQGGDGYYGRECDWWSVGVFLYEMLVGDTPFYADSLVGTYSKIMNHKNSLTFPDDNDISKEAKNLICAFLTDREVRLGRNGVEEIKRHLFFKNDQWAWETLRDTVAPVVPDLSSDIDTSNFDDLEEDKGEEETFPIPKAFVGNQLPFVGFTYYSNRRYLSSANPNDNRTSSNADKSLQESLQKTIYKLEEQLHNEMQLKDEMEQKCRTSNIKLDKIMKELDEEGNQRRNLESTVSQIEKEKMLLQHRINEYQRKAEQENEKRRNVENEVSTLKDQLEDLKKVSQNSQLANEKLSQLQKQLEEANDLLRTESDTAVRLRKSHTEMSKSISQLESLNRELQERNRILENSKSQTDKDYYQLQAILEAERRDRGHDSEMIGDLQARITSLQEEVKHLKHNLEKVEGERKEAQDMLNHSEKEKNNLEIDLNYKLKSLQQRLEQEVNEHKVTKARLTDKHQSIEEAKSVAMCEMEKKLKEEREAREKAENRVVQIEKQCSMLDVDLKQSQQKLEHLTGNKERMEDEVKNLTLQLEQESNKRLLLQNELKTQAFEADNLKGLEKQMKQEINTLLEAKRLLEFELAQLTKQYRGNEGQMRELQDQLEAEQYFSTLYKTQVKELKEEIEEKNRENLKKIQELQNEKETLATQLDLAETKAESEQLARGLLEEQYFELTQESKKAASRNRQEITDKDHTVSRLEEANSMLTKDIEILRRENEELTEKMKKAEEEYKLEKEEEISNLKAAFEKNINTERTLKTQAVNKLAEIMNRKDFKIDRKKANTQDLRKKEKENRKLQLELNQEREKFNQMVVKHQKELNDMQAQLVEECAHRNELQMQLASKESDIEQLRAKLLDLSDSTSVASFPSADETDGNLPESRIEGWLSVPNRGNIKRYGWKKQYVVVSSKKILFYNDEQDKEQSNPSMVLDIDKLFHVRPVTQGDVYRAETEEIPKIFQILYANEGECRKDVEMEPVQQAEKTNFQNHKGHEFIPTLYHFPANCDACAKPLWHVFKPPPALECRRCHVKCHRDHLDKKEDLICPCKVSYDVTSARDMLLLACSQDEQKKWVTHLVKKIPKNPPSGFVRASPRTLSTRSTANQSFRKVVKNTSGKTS
Aurora-B, sequence (Q96GD4 whole entry): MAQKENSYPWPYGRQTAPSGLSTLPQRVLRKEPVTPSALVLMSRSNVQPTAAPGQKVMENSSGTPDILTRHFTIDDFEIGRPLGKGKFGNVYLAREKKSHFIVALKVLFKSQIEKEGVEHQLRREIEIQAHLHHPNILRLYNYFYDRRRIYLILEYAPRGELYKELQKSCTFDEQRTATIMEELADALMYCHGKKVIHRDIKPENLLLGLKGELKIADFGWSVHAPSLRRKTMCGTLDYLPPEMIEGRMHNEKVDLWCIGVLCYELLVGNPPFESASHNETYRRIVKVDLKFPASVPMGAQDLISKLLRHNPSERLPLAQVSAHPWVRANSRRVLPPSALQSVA
JAK2, sequence (O60674 whole entry, species assumed): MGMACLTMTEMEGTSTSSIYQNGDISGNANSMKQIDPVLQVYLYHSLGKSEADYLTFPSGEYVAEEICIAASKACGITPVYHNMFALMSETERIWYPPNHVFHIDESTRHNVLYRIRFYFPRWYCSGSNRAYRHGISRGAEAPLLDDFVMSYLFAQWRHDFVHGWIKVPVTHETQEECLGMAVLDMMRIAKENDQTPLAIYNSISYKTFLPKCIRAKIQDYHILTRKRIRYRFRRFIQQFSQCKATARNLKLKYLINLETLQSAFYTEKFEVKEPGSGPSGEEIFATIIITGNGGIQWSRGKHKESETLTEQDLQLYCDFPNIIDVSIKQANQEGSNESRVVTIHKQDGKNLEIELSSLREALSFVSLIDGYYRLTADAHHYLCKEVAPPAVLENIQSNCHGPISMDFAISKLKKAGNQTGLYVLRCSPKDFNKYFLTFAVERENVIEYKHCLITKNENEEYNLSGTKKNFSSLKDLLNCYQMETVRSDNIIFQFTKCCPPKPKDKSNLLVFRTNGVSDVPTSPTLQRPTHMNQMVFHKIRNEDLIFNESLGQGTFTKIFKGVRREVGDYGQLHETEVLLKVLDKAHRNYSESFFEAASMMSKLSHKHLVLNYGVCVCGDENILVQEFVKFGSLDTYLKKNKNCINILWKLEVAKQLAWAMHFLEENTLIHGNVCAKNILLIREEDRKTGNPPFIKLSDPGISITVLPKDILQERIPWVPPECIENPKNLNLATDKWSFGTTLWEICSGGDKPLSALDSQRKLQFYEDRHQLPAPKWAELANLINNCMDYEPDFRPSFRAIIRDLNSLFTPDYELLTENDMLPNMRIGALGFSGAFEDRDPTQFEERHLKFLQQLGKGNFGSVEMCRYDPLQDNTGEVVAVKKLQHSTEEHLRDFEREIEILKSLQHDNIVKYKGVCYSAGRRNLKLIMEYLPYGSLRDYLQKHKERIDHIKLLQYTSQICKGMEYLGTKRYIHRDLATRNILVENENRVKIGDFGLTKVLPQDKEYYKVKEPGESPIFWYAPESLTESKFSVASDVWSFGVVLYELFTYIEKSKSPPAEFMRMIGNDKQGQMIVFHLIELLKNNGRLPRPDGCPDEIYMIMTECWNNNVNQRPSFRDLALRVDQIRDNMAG

SMILES | Ki [1] [nM] | Ki (JAK3) [nM] | Ki (ROCK) [nM] | Ki (JAK2) [nM] | Ki (Aurora-B) [nM]
CC(=O)N1[C@H](C)CN(c2nc(-c3c[nH]c4ncc(Cl)cc34)ccc2C(N)=O)C[C@@H]1C [Compound 32] | < 500 | < 500 | 500 to 5000 | < 500 | –
Nc1ccc(-c2c(-c3ccccc3)[nH]c3ncc(Br)cc23)cc1 [Compound 212] | < 500 | – | 500 to 5000 | – | 500 to 5000

— US8501446B2 (Vertex Pharmaceuticals Incorporated, priority 2004, dated 2013)
